Results reported in ChEMBL document CHEMBL4706519, “Evaluation of N-phenyl-2-aminothiazoles for treatment of multi-drug resistant and intracellular Staphylococcus aureus infections” (Eur J Med Chem, 2020).
≈ marks a conversion by molar mass, not a printed value.

Tests used:
[1] = test system: Staphylococcus aureus; test: Antibacterial activity against methicillin-resistant Staphylococcus aureus USA300 NRS384 assessed as inhibition of bacterial growth measured after 18 to 20 hrs by broth microdilution method; assay type: functional; details: time 18-20 hrs
[2] = test system: Escherichia coli; test: Antibacterial activity against Escherichia coli JW55031 harboring toIC efflux mutant assessed as inhibition of bacterial growth measured after 18 to 20 hrs by broth microdilution method; assay type: functional; details: time 18-20 hrs
[3] = test system: Escherichia coli; test: Antibacterial activity against wild type Escherichia coli BW25113 assessed as inhibition of bacterial growth measured after 18 to 20 hrs by broth microdilution method; assay type: functional; details: time 18-20 hrs
[4] = test system: Streptococcus pneumoniae; test: Ratio of MBC to MIC for cephalosporin-resistant Streptococcus pneumoniae ATCC 51916 assessed as inhibition of bacterial growth measured after 18 to 20 hrs by CLSI protocol based broth microdilution method; assay type: functional; details: time 18-20 hrs
[5] = test system: Listeria monocytogenes; test: Ratio of MBC to MIC for Listeria monocytogenes ATCC 19111 assessed as inhibition of bacterial growth measured after 18 to 20 hrs by CLSI protocol based broth microdilution method; assay type: functional; details: time 18-20 hrs
[6] = test system: Enterococcus faecium; test: Ratio of MBC to MIC for vancomycin-resistant Enterococcus faecium ATCC 700221 assessed as inhibition of bacterial growth measured after 18 to 20 hrs by CLSI protocol based broth microdilution method; assay type: functional; details: time 18-20 hrs
[7] = test system: Enterococcus faecalis; test: Ratio of MBC to MIC for vancomycin-resistant Enterococcus faecalis ATCC 51299 assessed as inhibition of bacterial growth measured after 18 to 20 hrs by CLSI protocol based broth microdilution method; assay type: functional; details: time 18-20 hrs
[8] = test system: Staphylococcus aureus; test: Ratio of MBC to MIC against methicillin-sensitive Staphylococcus aureus ATCC 6538 assessed as inhibition of bacterial growth measured after 18 to 20 hrs by CLSI broth microdilution method; assay type: functional; details: time 18-20 hrs
[9] = test system: Staphylococcus aureus; test: Antibacterial activity against vancomycin-resistant Staphylococcus aureus 10 assessed as inhibition of bacterial growth measured after 18 to 20 hrs by CLSI protocol based broth microdilution method; assay type: functional; details: time 18-20 hrs
[10] = test system: Staphylococcus epidermidis; test: Ratio of MBC to MIC for methicillin-resistant Staphylococcus epidermidis NRS101 assessed as inhibition of bacterial growth measured after 18 to 20 hrs by CLSI protocol based broth microdilution method; assay type: functional; details: time 18-20 hrs
[11] = test system: Staphylococcus aureus; test: Antibacterial activity against vancomycin-resistant Staphylococcus aureus 12 assessed as inhibition of bacterial growth measured after 18 to 20 hrs by CLSI protocol based broth microdilution method; assay type: functional; details: time 18-20 hrs
[12] = test system: Staphylococcus epidermidis; test: Antibacterial activity against methicillin-resistant Staphylococcus epidermidis NRS101 assessed as inhibition of bacterial growth measured after 18 to 20 hrs by CLSI protocol based broth microdilution method; assay type: functional; details: time 18-20 hrs
[13] = test system: Enterococcus faecium; test: Antibacterial activity against vancomycin-resistant Enterococcus faecium ATCC 700221 assessed as inhibition of bacterial growth measured after 18 to 20 hrs by CLSI protocol based broth microdilution method; assay type: functional; details: time 18-20 hrs
[14] = test system: Listeria monocytogenes; test: Antibacterial activity against Listeria monocytogenes ATCC 19111 assessed as inhibition of bacterial growth measured after 18 to 20 hrs by CLSI protocol based broth microdilution method; assay type: functional; details: time 18-20 hrs
[15] = test system: Streptococcus pneumoniae; test: Antibacterial activity against cephalosporin-resistant Streptococcus pneumoniae ATCC 51916 assessed as inhibition of bacterial growth measured after 18 to 20 hrs by CLSI protocol based broth microdilution method; assay type: functional; details: time 18-20 hrs
[16] = test system: Streptococcus pneumoniae; test: Antibacterial activity against methicillin-resistant Streptococcus pneumoniae ATCC 700677 assessed as inhibition of bacterial growth measured after 18 to 20 hrs by CLSI protocol based broth microdilution method; assay type: functional; details: time 18-20 hrs
[17] = test system: Staphylococcus aureus; test: Ratio of MBC to MIC against methicillin-sensitive Staphylococcus aureus NRS107 assessed as inhibition of bacterial growth measured after 18 to 20 hrs by CLSI protocol based broth microdilution method; assay type: functional; details: time 18-20 hrs
[18] = test system: Staphylococcus aureus; test: Bactericidal activity against methicillin-resistant Staphylococcus aureus USA400 NRS123 assessed as log reduction in viable bacteria count at 5 times MIC incubated for 2 hrs in soy broth followed by incubation for 18 to 20 hrs on agar plate by time kill assay; assay type: functional; details: time 20-22 hrs
[19] = test system: Staphylococcus aureus; test: Bactericidal activity against methicillin-resistant Staphylococcus aureus USA400 NRS123 assessed as post-antibiotic effect at 5 times MIC incubated for 2 hrs followed by compound wash-out by viable plate count method; assay type: functional
[20] = Cytotoxicity against human Caco-2 cells assessed as cell viability at 32 ug/ml incubated for 2 hrs by MTS assay relative to control; assay type: cell-based; details: at 32 µg/mL, read-out: Activity
[21] = Selectivity index, ratio of maximum non-toxic concentration for human Caco-2 cells to MIC for methicillin-resistant Staphylococcus aureus USA500 NRS385; assay type: toxicity
[22] = Selectivity index, ratio of maximum non-toxic concentration for human Caco-2 cells to MIC for methicillin-resistant Staphylococcus aureus USA400 NRS123; assay type: toxicity
[23] = Selectivity index, ratio of maximum non-toxic concentration for human Caco-2 cells to MIC for methicillin-resistant Staphylococcus aureus NRS119; assay type: toxicity
[24] = Selectivity index, ratio of maximum non-toxic concentration for human Caco-2 cells to MIC for methicillin-resistant Staphylococcus aureus USA300 NRS384; assay type: toxicity
[25] = Cytotoxicity against mouse J774 cells assessed as cell viability at 16 ug/ml incubated for 2 hrs by MTS assay relative to control; assay type: cell-based; details: at 16 µg/mL, read-out: Activity
[26] = test system: Staphylococcus aureus; test: Antibacterial activity against methicillin-resistant Staphylococcus aureus USA400 NRS123 infected in mouse J774 cells assessed as reduction in intracellular bacterial burden at 2 x MIC measured after 24 hrs relative to control; assay type: functional
[27] = test system: Staphylococcus aureus; test: Antibacterial activity against methicillin-resistant Staphylococcus aureus USA400 NRS123 infected in mouse J774 cells assessed as reduction in intracellular bacterial burden at 4 x MIC measured after 24 hrs relative to control; assay type: functional
[28] = test system: Streptococcus pneumoniae; test: Ratio of MBC to MIC for methicillin-resistant Streptococcus pneumoniae ATCC 700677 assessed as inhibition of bacterial growth measured after 18 to 20 hrs by CLSI protocol based broth microdilution method; assay type: functional; details: time 18-20 hrs
[29] = test system: Staphylococcus aureus; test: Bactericidal activity against methicillin-resistant Staphylococcus aureus USA400 NRS123 assessed as eradication of bacterial count at 5 times MIC incubated for 8 hrs in soy broth followed by incubation for 18 to 20 hrs on agar plate by time kill assay; assay type: functional; details: time 26-28 hrs
[30] = Selectivity index, ratio of maximum non-toxic concentration for human Caco-2 cells to MIC for methicillin-resistant Staphylococcus aureus USA700 NRS386; assay type: toxicity
[31] = Cytotoxicity against mouse J774 cells assessed as cell viability at 32 ug/ml incubated for 2 hrs by MTS assay; assay type: cell-based; details: J774 cells, at 32 µg/mL, read-out: Activity
[32] = test system: Staphylococcus aureus; test: Antibacterial activity against methicillin-resistant Staphylococcus aureus USA400 NRS123 infected in mouse J774 cells assessed as log reduction in intracellular bacterial burden at 2 x MIC measured after 24 hrs; assay type: functional
[33] = test system: Staphylococcus aureus; test: Antibacterial activity against methicillin-resistant Staphylococcus aureus USA400 NRS123 infected in mouse J774 cells assessed as log reduction in intracellular bacterial burden at 4 x MIC measured after 24 hrs; assay type: functional
[34] = test system: Staphylococcus aureus; test: Ratio of MIC for methicillin-resistant Staphylococcus aureus USA400 NRS123 measured after 5th passage to MIC for methicillin-resistant Staphylococcus aureus USA400 NRS123 measured after 18 to 20 hrs by broth microdilution assay; assay type: functional
[35] = test system: Staphylococcus aureus; test: Ratio of MIC for methicillin-resistant Staphylococcus aureus USA400 NRS123 measured after 11th passage to MIC for methicillin-resistant Staphylococcus aureus USA400 NRS123 measured after 18 to 20 hrs by broth microdilution assay; assay type: functional
[36] = test system: Staphylococcus aureus; test: microbe, parasite or virus in culture; details: ATCC 6538
[37] = test system: Staphylococcus aureus; test: microbe, parasite or virus in culture; details: NRS107
[38] = test system: Staphylococcus aureus; test: microbe, parasite or virus in culture; details: NRS119
[39] = test system: Staphylococcus aureus; test: microbe, parasite or virus in culture; details: USA400 NRS123
[40] = test system: Staphylococcus aureus; test: microbe, parasite or virus in culture; details: USA500 NRS385
[41] = test system: Staphylococcus aureus; test: microbe, parasite or virus in culture; details: USA700 NRS386
[42] = test system: Enterococcus faecalis; test: microbe, parasite or virus in culture; details: ATCC 51299

SMILES: C/C(=N\NC(=N)N)c1ccc(Nc2nc(-c3ccccc3)cs2)cc1
- MIC [1]: 2 µg/mL (≈ 5.71 µM)
- MIC [2]: 4 µg/mL (≈ 11.4 µM)
- MIC [3]: 8 µg/mL (≈ 22.8 µM)
- Ratio [4]: 1
- Ratio [5]: 1
- Ratio [6]: 1
- Ratio [7]: 1
- Ratio [8]: 1
- MBC [9]: 2 µg/mL (≈ 5.71 µM)
- MIC [9]: 2 µg/mL (≈ 5.71 µM)
- Ratio [10]: 1
- MBC [11]: 4 µg/mL (≈ 11.4 µM)
- MIC [11]: 2 µg/mL (≈ 5.71 µM)
- MBC [12]: 1 µg/mL (≈ 2.85 µM)
- MIC [12]: 1 µg/mL (≈ 2.85 µM)
- MBC [13]: 4 µg/mL (≈ 11.4 µM)
- MIC [13]: 2 µg/mL (≈ 5.71 µM)
- MBC [14]: 4 µg/mL (≈ 11.4 µM)
- MIC [14]: 1 µg/mL (≈ 2.85 µM)
- MBC [15]: 4 µg/mL (≈ 11.4 µM)
- MIC [15]: 2 µg/mL (≈ 5.71 µM)
- MBC [16]: 8 µg/mL (≈ 22.8 µM)
- MIC [16]: 2 µg/mL (≈ 5.71 µM)
- Ratio [17]: 1
- Activity [18]: 3 log10CFU/ml
- PAE [19]: 2 h
- viability at 2 h, 32 ug/ml [20]: 100%
- selectivity ratio [21]: 16
- selectivity ratio [22]: 16
- selectivity ratio [23]: 16
- selectivity ratio [24]: 16
- viability at 2 h, 16 ug/ml [25]: 100%
- inhibition (INH) [26]: 88%
- inhibition (INH) [27]: 93%
- Ratio [28]: 1
- Activity [29]: 100%
- selectivity ratio [30]: 16
- viability at 2 h, 32 ug/ml [31]: 100%
- Activity [32]: 1.07 log10CFU/ml
- Activity [33]: 1.19 log10CFU/ml
- Ratio [34]: 1
- Ratio [35]: 3
- MBC [36]: 2 µg/mL (≈ 5.71 µM)
- MIC [36]: 2 µg/mL (≈ 5.71 µM)
- MBC [37]: 4 µg/mL (≈ 11.4 µM)
- MIC [37]: 1 µg/mL (≈ 2.85 µM)
- MBC [38]: 4 µg/mL (≈ 11.4 µM)
- MIC [38]: 2 µg/mL (≈ 5.71 µM)
- MBC [39]: 2 µg/mL (≈ 5.71 µM)
- MIC [39]: 2 µg/mL (≈ 5.71 µM)
- MBC [40]: 2 µg/mL (≈ 5.71 µM)
- MIC [40]: 2 µg/mL (≈ 5.71 µM)
- MBC [41]: 8 µg/mL (≈ 22.8 µM)
- MIC [41]: 2 µg/mL (≈ 5.71 µM)
- MBC [42]: 4 µg/mL (≈ 11.4 µM)
- MIC [42]: 2 µg/mL (≈ 5.71 µM)
